Measurements: publication PMC9001978, “Determining the Effects of Differential Expression of GRKs and β-arrestins on CLR-RAMP Agonist Bias” (Frontiers in Physiology, 2022)

Key:
CLR-RAMP1 [1] = target: T1, CLR-RAMP1 (Homo sapiens, UniProt O60894+Q16602); assay: Internalisation of CLR-RAMP1 (BRET CLR-Nluc / RIT-Venus); conditions: HEK293T, CLR-Nluc + FLAG-RAMP1, RIT-Venus BRET; mean ± SEM, n = 3-4
CLR-RAMP2 [2] = target: T2, CLR-RAMP2 (Homo sapiens, UniProt O60895+Q16602); assay: cAMP accumulation at CLR-RAMP2
T2 sequence (Q16602 23-461): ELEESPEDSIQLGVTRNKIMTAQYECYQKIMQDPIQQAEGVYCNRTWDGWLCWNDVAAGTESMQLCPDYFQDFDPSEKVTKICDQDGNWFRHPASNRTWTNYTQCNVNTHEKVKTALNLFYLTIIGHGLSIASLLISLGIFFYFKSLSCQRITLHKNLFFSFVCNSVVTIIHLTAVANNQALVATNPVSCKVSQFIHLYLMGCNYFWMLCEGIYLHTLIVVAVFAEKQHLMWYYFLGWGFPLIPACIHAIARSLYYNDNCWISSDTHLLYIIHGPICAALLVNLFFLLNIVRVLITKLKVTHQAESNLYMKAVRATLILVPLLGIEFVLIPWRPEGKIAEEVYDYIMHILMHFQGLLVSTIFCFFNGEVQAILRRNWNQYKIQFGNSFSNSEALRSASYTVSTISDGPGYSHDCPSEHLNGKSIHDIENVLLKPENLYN
T2 sequence (O60895 43-175): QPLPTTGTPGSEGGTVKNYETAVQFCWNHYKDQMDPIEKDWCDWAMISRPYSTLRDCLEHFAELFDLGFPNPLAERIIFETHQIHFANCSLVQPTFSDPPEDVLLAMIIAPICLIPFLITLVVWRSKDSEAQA

CLR-RAMP3 [3] = target: T3, CLR-RAMP3 (Homo sapiens, UniProt O60896+Q16602); assay: Internalisation of CLR-RAMP3 (BRET CLR-Nluc / RIT-Venus); conditions: HEK293T, CLR-Nluc + FLAG-RAMP3, RIT-Venus BRET; mean ± SEM, n = 4-5
T3 sequence (Q16602 23-461): as the sequence (Q16602 23-461) above
T3 sequence (O60896 24-148): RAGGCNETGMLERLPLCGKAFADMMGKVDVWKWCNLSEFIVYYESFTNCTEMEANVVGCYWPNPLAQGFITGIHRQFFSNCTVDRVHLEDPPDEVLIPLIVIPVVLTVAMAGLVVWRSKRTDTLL

CLR-RAMP3 [4] = target: T3, CLR-RAMP3; parameters: method as in Clark et al., 2021; conditions: AM receptor 2 (AM2R), ref Clark et al., 2021; cited from earlier work
CLR-RAMP1 [5] = target: T1, CLR-RAMP1; assay: β-arrestin1 recruitment to CLR-RAMP1 (BRET); conditions: HEK293T, n = 3
CLR-RAMP2 [6] = target: T2, CLR-RAMP2; assay: β-arrestin1 recruitment to CLR-RAMP2 (BRET); conditions: HEK293T, n = 3
CLR-RAMP2 [7] = target: T2, CLR-RAMP2; assay: Internalisation of CLR-RAMP2 (BRET CLR-Nluc / RIT-Venus); conditions: HEK293T, CLR-Nluc + FLAG-RAMP2, RIT-Venus BRET; mean ± SEM, n = 3-4
CLR-RAMP2 [8] = target: T2, CLR-RAMP2; assay: β-arrestin2 recruitment to CLR-RAMP2 (BRET); conditions: HEK293T, n = 3
CLR-RAMP1 [9] = target: T1, CLR-RAMP1; assay: β-arrestin2 recruitment to CLR-RAMP1 (BRET); conditions: HEK293T, n = 3

T1 sequence (Q16602 23-461): as the sequence (Q16602 23-461) above
T1 sequence (O60894 27-148): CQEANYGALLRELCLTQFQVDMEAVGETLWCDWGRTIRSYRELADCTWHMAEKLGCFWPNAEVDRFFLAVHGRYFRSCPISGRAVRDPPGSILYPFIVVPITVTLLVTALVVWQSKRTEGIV

- Emax, internalisation (CLR-RAMP1 [1]): ~-63 ± 41 BRET units (x10^-3)
- Effect of barbadin pretreatment on cAMP accumulation (CLR-RAMP2 [2]; AM2 at CLR-RAMP2): far smaller
- Change in cAMP potency on β-arrestin2 overexpression (CLR-RAMP2 [2]; CLR-RAMP2, HEK293T, p = 0.02): significant decrease in potency
- Emax, internalisation (CLR-RAMP3 [3]): ~-8 ± 3 BRET units (x10^-3)
- Emax, β-arrestin1 recruitment (CLR-RAMP1 [5]; CLR-Nluc + FLAG-RAMP1 + β-arrestin1-YFP, BRET, mean ± SEM): ~63 ± 27 BRET units (x10^-3)
- Emax, β-arrestin1 recruitment (CLR-RAMP1 [5]; GRK2 overexpressed): ~46 ± 5 BRET units (x10^-3)
- Emax, β-arrestin1 recruitment (CLR-RAMP1 [5]; GRK3 overexpressed): ~32 ± 2 BRET units (x10^-3)
- Emax, β-arrestin1 recruitment (CLR-RAMP1 [5]; GRK4 overexpressed): ~28 ± 7 BRET units (x10^-3)
- Emax, β-arrestin1 recruitment (CLR-RAMP1 [5]; GRK6 overexpressed): ~10 ± 6 BRET units (x10^-3)
- Emax, β-arrestin1 recruitment (CLR-RAMP1 [5]; GRK series: Vector): ~63 ± 26 BRET units (x10^-3)
- Emax, β-arrestin1 recruitment (CLR-RAMP2 [6]; CLR-Nluc + FLAG-RAMP2 + β-arrestin1-YFP, BRET, mean ± SEM): 3 ± 1 BRET units (x10^-3)
- Emax, β-arrestin1 recruitment (CLR-RAMP2 [6]; GRK2 overexpressed): 7 ± 1 BRET units (x10^-3)
- Emax, β-arrestin1 recruitment (CLR-RAMP2 [6]; GRK3 overexpressed): 11 ± 1 BRET units (x10^-3)
- Emax, β-arrestin1 recruitment (CLR-RAMP2 [6]; GRK4 overexpressed): 4 ± 1 BRET units (x10^-3)
- Emax, β-arrestin1 recruitment (CLR-RAMP2 [6]; GRK series: Vector): 3 ± 1 BRET units (x10^-3)
- Emax, internalisation (CLR-RAMP2 [7]): ~-20 ± 18 BRET units (x10^-3)
- Emax, β-arrestin2 recruitment (CLR-RAMP2 [8]; CLR-Nluc + FLAG-RAMP2 + β-arrestin2-YFP, BRET, mean ± SEM): 9 ± 1 BRET units (x10^-3)
- Emax, β-arrestin2 recruitment (CLR-RAMP2 [8]; GRK4 overexpressed): 10 ± 2 BRET units (x10^-3)
- Emax, β-arrestin2 recruitment (CLR-RAMP2 [8]; GRK series: Vector): 9 ± 1 BRET units (x10^-3)
- Emax, β-arrestin2 recruitment (CLR-RAMP1 [9]; CLR-Nluc + FLAG-RAMP1 + β-arrestin2-YFP, BRET, mean ± SEM): ~98 ± 21 BRET units (x10^-3)
- Emax, β-arrestin2 recruitment (CLR-RAMP1 [9]; GRK2 overexpressed): ~54 ± 47 BRET units (x10^-3)
- Emax, β-arrestin2 recruitment (CLR-RAMP1 [9]; GRK3 overexpressed): ~49 ± 8 BRET units (x10^-3)
- Emax, β-arrestin2 recruitment (CLR-RAMP1 [9]; GRK4 overexpressed): ~45 ± 4 BRET units (x10^-3)
- Emax, β-arrestin2 recruitment (CLR-RAMP1 [9]; GRK series: Vector): ~98 ± 21 BRET units (x10^-3)
SMILES: CSCC[C@H](NC(=O)[C@H](CC(C)C)NC(=O)[C@H](CCC(N)=O)NC(=O)[C@H](Cc1c[nH]c2ccccc12)NC(=O)[C@H](CC(C)C)NC(=O)[C@H](CCCNC(=N)N)NC(=O)[C@H](Cc1c[nH]cn1)NC(=O)[C@H](CO)NC(=O)[C@H](CC(C)C)NC(=O)[C@H](CC(N)=O)NC(=O)[C@H](CCC(N)=O)NC(=O)[C@@H](NC(=O)[C@H](CCC(N)=O)NC(=O)[C@@H]1CSSC[C@H](NC(=O)CNC(=O)[C@@H](NC(=O)[C@H](CCCNC(=N)N)NC(=O)[C@H](CC(C)C)NC(=O)[C@H](CC(C)C)NC(=O)[C@H](CCC(N)=O)NC(=O)[C@H](C)NC(=O)[C@H](CCC(N)=O)NC(=O)[C@@H](N)[C@@H](C)O)C(C)C)C(=O)N[C@@H](C(C)C)C(=O)N[C@@H](CC(C)C)C(=O)NCC(=O)N[C@@H]([C@@H](C)O)C(=O)N1)C(C)C)C(=O)NCC(=O)N1CCC[C@H]1C(=O)N[C@@H](C)C(=O)NCC(=O)N[C@@H](CCCNC(=N)N)C(=O)N[C@@H](CCC(N)=O)C(=O)N[C@@H](CC(=O)O)C(=O)N[C@@H](CO)C(=O)N[C@@H](C)C(=O)N1CCC[C@H]1C(=O)N[C@H](C(=O)N[C@@H](CC(=O)O)C(=O)N1CCC[C@H]1C(=O)N[C@@H](CO)C(=O)N[C@@H](CO)C(=O)N1CCC[C@H]1C(=O)N[C@@H](Cc1c[nH]cn1)C(=O)N[C@@H](CO)C(=O)N[C@@H](Cc1ccc(O)cc1)C(N)=O)C(C)C [AM2, adrenomedullin 2]
- Rank order of potency (CLR-RAMP3 [4]): equipotent agonists
